# Laboratory results published in US7087228B2, “Preventing tooth decay and infective endocarditis using natural oligopeptides” (University of Southern California, priority 2002, dated 2006).
# Tests used:
# FTF expression = assay: Western blot control with antibody specific to FTF; type: cell-based, S. mutans; conditions: same blot analyzed with antibody specific to FTF; FIG. 6 panel 2
# Description: (§1) For the Western blotting, the bacteria were incubated to the desired optical density, subjected to the freeze-thaw cycle and mixed with the sample loading buffer. The samples were heated at 100° C. for 15 minutes and subjected to the PAGE. The number of cells per lane of the gel was kept constant at 10^8 cells. The western blotting was performed in accordance with a standard procedure (Sambrook, J. and Russel D. W. Molecular Cloning, a laboratory manual, 3rd ed. Cold Spring Harbor Laboratory Press, NY, 2001). Briefly, after PAGE the samples were transferred onto the nitrocellulose membrane and the latter subjected to the standard ELISA procedure. The anti-GTFB mouse monoclonal antibody was previously characterized (Fukushima, K., Okada, T., Ochiai, K., Infection and Immunity 61:323–328 (1993), incorporated herein by reference). The secondary antibody (HRP-linked goat anti-mouse) and the detection reagents were purchased from Cell Signaling Technology (Beverly, Mass.).
# (§2) Synthetic CSP was dissolved in water to the concentration of 1 mg/mL as described in Li, Y-H et al., J. of Bact., 183:897–908 (2001). […]
# (§3) A Western blot analysis was performed to determine the effect of CSP on the level of GTFB expression. […] As a control, the same blot was analyzed with antibody specific to FTF, where it was observed that CSP has no effect on FTF expression (FIG. 6, panel 2).
# [1] = test system: GTFB expression in the wild-type S. mutans; assay: Western blot of GTFB expression after addition of CSP to cultures; type: cell-based; conditions: CSP added to fresh cultures at the time of dilution, 1 to 8 mcg/mL, FIG. 6 panel 1
# Description: as §1, §2, §3
# gtfB gene of S. mutans = assay: Transcriptional fusion assay (gtfB promoter-luciferase, luminescence); type: cell-based; conditions: increasing concentrations of CSP, 10 minutes incubation at peak expression (end of lag phase); FIG. 7
# Description: The fusion constructs and the transcription assay were previously described (Goodman, S. D. and Gao, Q., Plasmid 43:85–98 (2000)). Briefly, the constructs comprised the upstream regions of the gtfB and gtfC genes fused to the promoterless coding sequence of the firefly luciferase gene and inserted into the plasmid vector pVA838, a shuttle plasmid capable of propagating in both E. coli and S. mutans marked with erythromycin resistance. The plasmids were introduced into S. mutans GS5 by electroporation and the resulting erythromycin resistant strains were grown in liquid cultures and collected at various optical densities. The reporter gene (luciferase) expression was detected by measuring luminescence upon the addition of luciferin (the substrate for luciferase), see Goodman, S. D. and Gao Q. Plasmid 42:154–157 (1999), incorporated herein by reference.
# as §2
# The transcriptional fusion assay was performed to determine whether CSP inhibits the expression of the gtfB gene of S. mutans. […] When the expression peaked at the end of the lag phase prior to the exponential growth, the cells were challenged with increasing concentrations of CSP for an incubation period of 10 minutes and assessed for luminescence, the measure of reporter gene expression. […]
# S. mutans = assay: In vitro attachment assay to a smooth surface (Petri dish) with sucrose; type: cell-based; conditions: CSP at 8 μg/mL for 10 minutes prior to hour-long incubation on Petri dishes with sucrose; up to 51% without CSP; FIG. 8
# Description: The bacteria were grown in liquid cultures to the desired optical density. 20 ml of the cultures were then transferred into Petri dishes and sucrose added to the final concentration of 2%. The incubation was resumed for one hour, after which the liquid fraction was withdrawn and the fresh medium was added into which the layer of attached cells was scraped. The percentage of the attached bacteria was determined as the ratio of the optical densities of the attached to the total (a sum of attached and unattached) bacteria.
# Synthetic CSP was dissolved in water to the concentration of 1 mg/mL as described in Li, Y-H et al., J. of Bact., 183:897–908 (2001). The cultures were grown in Todd Hewitt Broth (THB) supplemented with 5% horse serum. CSP was added to the cultures at the time of diluting the overnight culture (time zero of the culture growth) to a designated concentration between 1 and 8 mcg/mL. The incubation then continued up to the optical density where the expression of GTF is maximal (OD 650=0.1). The cultures where then collected and used in Western blotting with anti-glucosyltransferase (gtf) antibody. […]
# An in vitro assay was performed to determine whether CSP can inhibit the attachment of S. mutans to a smooth surface. When sucrose was added to the medium, the wild-type S. mutans readily attached to the surface of a Petri dish. […]
substance,measurement,setting,value
CSP: natural peptide produced and secreted by S. mutans that acts as an autoinducer; sequence SEQ ID NO: 1 (FIG. 1); synthetic CSP was used (SGSLSTFFRLFNRSFTQALGK; Streptococcus mutans),effect on FTF expression (Western blot),FTF expression,no effect
same,peak expression of GTFB (Western blot),[1],lowered proportionally to the amount of peptide added
same,repression of gtfB reporter gene expression (luminescence),gtfB gene of S. mutans,increasing concentrations of CSP increased the magnitude of repression
same,bacterial cells localized to the attached layer,S. mutans,less than 8%
